Test results: publication PMC6804140, “Peptidomic Approach for the Identification of Peptides with Potential Antioxidant and Anti-Hyperthensive Effects Derived From Asparagus By-Products” (Molecules, 2019)
Ends that are not written are not given here.

Molecular target: T1, ACE from rabbit lung (Oryctolagus cuniculus, UniProt P12822)
T1 construct: ACE from rabbit lung; purchased Sigma-Aldrich (St. Louis, MO, USA); host or cells: rabbit lung tissue
T1 sequence (P12822 34-1310): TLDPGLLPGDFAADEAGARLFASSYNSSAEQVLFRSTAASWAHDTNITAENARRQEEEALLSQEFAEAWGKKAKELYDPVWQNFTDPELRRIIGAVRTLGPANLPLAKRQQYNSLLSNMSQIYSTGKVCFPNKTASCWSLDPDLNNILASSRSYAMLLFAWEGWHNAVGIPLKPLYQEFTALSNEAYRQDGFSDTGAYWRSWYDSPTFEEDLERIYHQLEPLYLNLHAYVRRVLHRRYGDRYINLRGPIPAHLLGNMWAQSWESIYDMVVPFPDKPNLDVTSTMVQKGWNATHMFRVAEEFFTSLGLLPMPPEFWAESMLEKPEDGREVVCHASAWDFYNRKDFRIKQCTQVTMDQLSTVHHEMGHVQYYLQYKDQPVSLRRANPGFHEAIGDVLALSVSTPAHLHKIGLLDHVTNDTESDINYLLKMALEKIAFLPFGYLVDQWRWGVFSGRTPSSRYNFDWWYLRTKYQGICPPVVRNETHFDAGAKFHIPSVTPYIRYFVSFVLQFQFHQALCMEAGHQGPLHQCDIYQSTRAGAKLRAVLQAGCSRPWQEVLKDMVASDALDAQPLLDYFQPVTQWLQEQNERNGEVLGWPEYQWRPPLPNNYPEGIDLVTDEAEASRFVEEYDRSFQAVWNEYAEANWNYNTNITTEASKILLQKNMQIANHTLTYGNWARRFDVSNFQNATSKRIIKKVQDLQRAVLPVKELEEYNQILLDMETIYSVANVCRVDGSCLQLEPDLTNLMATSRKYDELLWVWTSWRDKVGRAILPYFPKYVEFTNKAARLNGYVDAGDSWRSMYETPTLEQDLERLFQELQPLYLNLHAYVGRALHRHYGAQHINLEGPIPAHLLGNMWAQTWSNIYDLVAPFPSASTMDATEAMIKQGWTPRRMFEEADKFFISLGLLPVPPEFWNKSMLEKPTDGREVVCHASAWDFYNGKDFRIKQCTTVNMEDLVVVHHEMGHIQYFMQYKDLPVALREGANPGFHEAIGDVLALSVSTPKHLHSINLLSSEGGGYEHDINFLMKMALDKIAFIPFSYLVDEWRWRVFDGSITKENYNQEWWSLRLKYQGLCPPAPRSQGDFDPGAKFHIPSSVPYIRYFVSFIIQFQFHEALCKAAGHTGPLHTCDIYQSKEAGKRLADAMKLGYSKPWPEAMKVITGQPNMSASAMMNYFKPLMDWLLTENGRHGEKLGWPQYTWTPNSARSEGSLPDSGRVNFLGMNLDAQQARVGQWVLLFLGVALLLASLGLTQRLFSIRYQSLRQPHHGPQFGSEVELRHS
Assay: ACE-inhibitory assay
Format: biochemical
Details: synthetic peptide (90%); pH 8.3, 37 °C, 90 min, 228 nm; fit Origin 9.0; ± SD in Table 1; read-out: EC50 value, ACE inhibition assay

Substance	EC50
ASQSIWLPGWL [ASQSIWLPGWL]	4.02 ± 1.79 µM
PDWFLLL [PDWFLLL]	5.74 ± 2.35 µM
